Measurements reported in article PMC11217419, “TRP14 is the rate-limiting enzyme for intracellular cystine reduction and regulates proteome cysteinylation” (The EMBO Journal, 2024).

Biological target: T1, TXDC-17 (C. elegans TRP14) (Caenorhabditis elegans, UniProt Q9BL27)
T1 construct: recombinant, purified with the same methodologies as the human orthologue
T1 sequence (Q9BL27 1-132): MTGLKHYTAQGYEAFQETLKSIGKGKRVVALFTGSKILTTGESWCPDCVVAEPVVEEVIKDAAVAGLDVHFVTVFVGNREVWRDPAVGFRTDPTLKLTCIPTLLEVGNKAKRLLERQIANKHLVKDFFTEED
Test: coupled cystine reduction assay with C. elegans TRXR-1
Assay type: biochemical
Conditions: with C. elegans TRXR-1 as reductase

## N[C@@H](CSSC[C@H](N)C(=O)O)C(=O)O [cystine]
  coupled cystine reduction assay with C. elegans TRXR-1: TXDC-17, together with its native reductase, could efficiently reduce cystine in vitro
